Values after ≈ are worked out from the molar mass of the structure shown. Active and inactive are the calls of the source. No cut-off for these calls is given here.
How the values were obtained:
Staphylococcus aureus [1] = test: Synergistic antibacterial activity against methicillin-resistant Staphylococcus aureus assessed as fractional inhibitory concentration index in presence of ceftriaxone; type: functional
Staphylococcus aureus [2] = test: Synergistic antibacterial activity against methicillin-resistant Staphylococcus aureus assessed as fractional inhibitory concentration index in presence of chlorpromazine; type: functional
DNA [3] = test: Binding affinity to methicillin-resistant Staphylococcus aureus DNA assessed as change in DNA conformation by UV absorption based analysis; type: nucleic-acid assay
Staphylococcus aureus [4] = test: Bactericidal activity against methicillin-resistant Staphylococcus aureus assessed as eradication of bacterial growth at 4 times of MIC measured within 1 hrs relative to control; type: functional
Staphylococcus aureus [5] = test: Antimicrobial activity against methicillin-resistant Staphylococcus aureus 003; type: functional
Enterococcus faecalis = test: Antimicrobial activity against vancomycin resistant Enterococcus faecalis ATCC 51299; type: functional
Staphylococcus aureus [6] = test: Antibacterial activity against methicillin-resistant Staphylococcus aureus infected in cyclophosphamide-injected Kunming mouse model of skin wound infection assessed as normal morphological appearance of skin at 1 to 4 mg/kg administered for 7 days and measured on day 8 by H and E staining based analysis; type: functional, organism-based; conditions: dose 1-4 mg/kg, time 8.0 day
Staphylococcus aureus [7] = test: Antimicrobial activity against methicillin-resistant Staphylococcus aureus in presence of peptidoglycan; type: functional, organism-based
[8] = Selectivity index, ratio of HC50 for hemolytic activity against Mianyang red blood cells (unknown origin) to MIC for antimicrobial activity against methicillin resistant Staphylococcus aureus 003; type: toxicity, cell-based, RBC; conditions: read-out: Selectivity Index
Staphylococcus aureus [9] = test: Antimicrobial activity against methicillin-resistant Staphylococcus aureus 011; type: functional
Staphylococcus aureus [10] = test: Antibiofilm activity against methicillin-resistant Staphylococcus aureus assessed as reduction in number of live cells at 8 times of MIC (reference value: 7.79 log10CFU/ml); type: functional
[11] = Hemolytic activity against Mianyang red blood cells (unknown origin); type: toxicity, cell-based, RBC
Staphylococcus aureus [12] = test: Antibacterial activity against methicillin-resistant Staphylococcus aureus assessed as inhibition of bacterial growth at 1 times of MIC; type: functional, organism-based
Staphylococcus aureus [13] = test: Antibacterial activity against methicillin-resistant Staphylococcus aureus infected in cyclophosphamide-injected Kunming mouse model of skin wound infection assessed as reduction in bacterial load in skin at 1 mg/kg measured after 7 days; type: functional; conditions: time 7 day
Cell membrane [14] = test: Disruption of cell membrane integrity in Candida albicans; type: subcellular
Staphylococcus aureus [15] = test: Antibacterial activity against methicillin-resistant Staphylococcus aureus infected in cyclophosphamide-injected Kunming mouse model of skin wound infection assessed as reduction in bacterial load in skin at 2 mg/kg measured after 7 days; type: functional; conditions: time 7 day
DNA [16] = test: Binding affinity to methicillin-resistant Staphylococcus aureus DNA assessed as decrease in fluorescence by PI staining based analysis; type: nucleic-acid assay
Cell membrane [17] = test: Disruption of cell membrane integrity in methicillin-resistant Staphylococcus aureus assessed as increase in ROS level at 2 to 8 times of MIC incubated for 1 hrs; type: subcellular
Staphylococcus aureus [18] = test: Antibiofilm activity against methicillin-resistant Staphylococcus aureus assessed as decrease in biofilm biomass at 1 to 8 times of MIC by crystal violet staining based analysis; type: functional, organism-based
Staphylococcus aureus [19] = test: Antibacterial activity against methicillin-resistant Staphylococcus aureus infected in cyclophosphamide-injected Kunming mouse model of skin wound infection assessed as reduction in bacterial load in skin at 4 mg/kg measured after 7 days; type: functional; conditions: time 7 day
DNA [20] = test: Binding affinity to methicillin-resistant Staphylococcus aureus DNA assessed as inhibition of DNA migration at 75 microg/ml by electrophoretic analysis; type: nucleic-acid assay; conditions: dose 75.0 µg/ml
Staphylococcus aureus [21] = test: Antibacterial activity against methicillin-resistant Staphylococcus aureus infected in cyclophosphamide-injected Kunming mouse model of skin wound infection assessed as wound scabbing at 2 to 4 mg/kg measured after 2 days by photographic analysis; type: functional, organism-based; conditions: dose 2-4 mg/kg, time 2.0 day
Staphylococcus aureus [22] = test: Synergistic antibacterial activity against methicillin-resistant Staphylococcus aureus assessed as fractional inhibitory concentration index in presence of cefoxitin; type: functional
Staphylococcus aureus [23] = test: Antibacterial activity against methicillin-resistant Staphylococcus aureus in presence of DNA; type: functional, organism-based
Candida albicans = test: Antimicrobial activity against fluconazole-resistant Candida albicans; type: functional
Staphylococcus aureus [24] = test: Synergistic antibacterial activity against methicillin-resistant Staphylococcus aureus assessed as fractional inhibitory concentration index in presence of fluconazole; type: functional
Staphylococcus aureus [25] = test: Antibacterial activity against methicillin-resistant Staphylococcus aureus infected in cyclophosphamide-injected Kunming mouse model of skin wound infection assessed as increase in body weight at 2 to 4 mg/kg measured after 3 days; type: functional, organism-based; conditions: dose 2-4 mg/kg, time 3.0 day
Staphylococcus aureus [26] = test: Bactericidal activity against methicillin-resistant Staphylococcus aureus; type: functional, organism-based
Cell membrane [27] = test: Disruption of cell membrane integrity in methicillin-resistant Staphylococcus aureus assessed as nucleic acid leakage by absorbance based analysis; type: subcellular
Staphylococcus aureus [28] = test: Antimicrobial activity against methicillin-resistant Staphylococcus aureus in presence of cardiolipin; type: functional, organism-based
DNA [29] = test: Binding affinity to […] methicillin-resistant Staphylococcus aureus DNA assessed as inhibition of DNA migration by electrophoretic analysis; type: nucleic-acid assay
Staphylococcus aureus [30] = test: Synergistic antibacterial activity against methicillin-resistant Staphylococcus aureus assessed as fractional inhibitory concentration index in presence of vancomycin; type: functional
Staphylococcus aureus [31] = test: Antimicrobial activity against methicillin-resistant Staphylococcus aureus in presence of phosphatidylethanolamine; type: functional, organism-based
Staphylococcus aureus [32] = test: Antibacterial activity against methicillin-resistant Staphylococcus aureus at sub-MIC measured after 20 days of continuous passage; type: functional, organism-based; conditions: time 20.0 day
Staphylococcus aureus [33] = test: Antibiofilm activity against methicillin-resistant Staphylococcus aureus assessed as decrease in biofilm density at 1 to 8 times of MIC incubated for 24 hrs by fluorescence microscopic analysis; type: functional, organism-based
DNA [34] = test: Binding affinity to methicillin-resistant Staphylococcus aureus DNA assessed as effect on helical structure by measuring change in positive and negative peaks at 10 to 40 microg/ml by CD spectra; type: nucleic-acid assay; conditions: dose 10-40 µg/ml
Staphylococcus aureus [35] = test: Antibacterial activity against methicillin-resistant Staphylococcus aureus infected in cyclophosphamide-injected Kunming mouse model of skin wound infection assessed as reduction in IL-6 level in skin at 1 to 4 mg/kg administered for 7 days and measured on day 8; type: functional, organism-based; conditions: dose 1-4 mg/kg, time 8.0 day
Escherichia coli = test: Antimicrobial activity against Escherichia coli; type: functional
Staphylococcus aureus [36] = test: Antibiofilm activity against methicillin-resistant Staphylococcus aureus assessed as inhibition of biofilm formation at 2 times of MIC by crystal violet staining based analysis relative to control; type: functional
Cell membrane [37] = test: Disruption of cell membrane integrity in methicillin-resistant Staphylococcus aureus assessed as cell deformation at 2 to 4 times of MIC by scanning electron microscopic analysis; type: subcellular
Staphylococcus aureus [38] = test: Synergistic antibacterial activity against methicillin-resistant Staphylococcus aureus assessed as fractional inhibitory concentration index in presence of norfloxacin; type: functional, organism-based
Staphylococcus aureus [39] = test: Antibacterial activity against methicillin-resistant Staphylococcus aureus infected in cyclophosphamide-injected Kunming mouse model of skin wound infection assessed as reduction in skin lesions at 1 to 4 mg/kg administered for 7 days and measured on day 8 by H and E staining based analysis; type: functional, organism-based; conditions: dose 1-4 mg/kg, time 8.0 day
Cell membrane [40] = test: Disruption of cell membrane integrity in methicillin-resistant Staphylococcus aureus assessed as increase in PI fluorescence at 2 to 8 times of MIC by PI staining based fluorescence analysis; type: subcellular
Staphylococcus aureus [41] = test: Synergistic antibacterial activity against methicillin-resistant Staphylococcus aureus assessed as fractional inhibitory concentration index in presence of streptomycin; type: functional
Staphylococcus aureus [42] = test: Synergistic antibacterial activity against methicillin-resistant Staphylococcus aureus assessed as fractional inhibitory concentration index in presence of polymyxin B; type: functional, organism-based
Staphylococcus aureus [43] = test: Antimicrobial activity against Staphylococcus aureus 29; type: functional

CC(=O)O[C@H]1CC[C@]2(C)[C@H]3CC=C4[C@@H]5CC(C)(C)CC[C@]5(C(=O)NCCCNC(=N)N)CC[C@@]4(C)[C@]3(C)CC[C@H]2C1(C)C
Activity (Staphylococcus aureus [1]): Active
Activity (Staphylococcus aureus [2]): Active
Activity (DNA [3]): Active
Activity (Staphylococcus aureus [4]): 99.99%
MIC (Staphylococcus aureus [5]): 1 µg/mL (≈ 1.68 µM)
MIC (Enterococcus faecalis): 2 µg/mL (≈ 3.35 µM)
Activity (Staphylococcus aureus [6]): Active
Activity (Staphylococcus aureus [7]): Active
selectivity ratio [8]: 399
MIC (Staphylococcus aureus [9]): 2 µg/mL (≈ 3.35 µM)
Activity (Staphylococcus aureus [10]): 2.7 log10CFU/ml
HC50 [11]: 399 µg/mL
Activity (Staphylococcus aureus [12]): Active
Activity (Staphylococcus aureus [13]): 0.97 log10CFU/mg
Activity (Cell membrane [14]): Active
Activity (Staphylococcus aureus [15]): 1.24 log10CFU/mg
Activity (DNA [16]): Dose-Dependent Effect
Activity (Cell membrane [17]): Active
Activity (Staphylococcus aureus [18]): Active
Activity (Staphylococcus aureus [19]): 1.94 log10CFU/mg
Activity (DNA [20]): Active
Activity (Staphylococcus aureus [21]): Active
Activity (Staphylococcus aureus [22]): Active
Activity (Staphylococcus aureus [23]): inactive
MIC (Candida albicans): 1 µg/mL (≈ 1.68 µM)
Activity (Staphylococcus aureus [24]): Active
Activity (Staphylococcus aureus [25]): Active
Activity (Staphylococcus aureus [26]): Active
Activity (Cell membrane [27]): Active
Activity (Staphylococcus aureus [28]): inactive
Activity (DNA [29]): Active
Activity (Staphylococcus aureus [30]): Active
Activity (Staphylococcus aureus [31]): inactive
Activity (Staphylococcus aureus [32]): Active
Activity (Staphylococcus aureus [33]): Dose-Dependent Effect
Activity (DNA [34]): Active
Activity (Staphylococcus aureus [35]): Active
MIC (Escherichia coli): > 64 µg/mL
inhibition (INH) (Staphylococcus aureus [36]): >80%
Activity (Cell membrane [37]): Active
Activity (Staphylococcus aureus [38]): Active
Activity (Staphylococcus aureus [39]): Active
Activity (Cell membrane [40]): Active
Activity (Staphylococcus aureus [41]): Active
Activity (Staphylococcus aureus [42]): Active
MIC (Staphylococcus aureus [43]): 1 µg/mL (≈ 1.68 µM)
